Results: patent US11633335B2, “Skin cleansing composition” (KAO CORPORATION, priority 2017, dated 2023)

How the values were obtained:
[1] = Keratotic plug detergency (penetration): penetration of the sample into keratotic plugs one minute after contact, digital microscope; set-up: species or system human; conditions: contact with the sample for 1 minute; samples of Table 1
Protocol: Keratotic plugs in the nasal region were removed with “Biore Nose Pack (manufactured by Kao Corporation)”, the resulting keratotic plugs on the pack were gently taken out with tweezers. […] Consequently, the sample entered into the gap between the slide glass and the cover glass by capillary phenomenon and was brought into contact with the keratotic plugs. The contact of the keratotic plugs and the sample was recorded with a digital microscope (VHX-5000, manufactured by Keyence Corporation, magnification: 150×), and the penetration of the sample into the keratotic plugs and the collapse state of the keratotic plugs were evaluated after one minute from the contact of the keratotic plugs with the sample. The results of each evaluation are shown in the columns “Keratotic plug detergency (penetration)” and “Keratotic plug detergency (during cleansing)” in Tables. The measurements were performed at 25° C. The penetration was relatively evaluated by criteria with 11 ratings starting from the rating 1 “the sample hardly penetrated into the keratotic plug” to the rating 11 “the sample penetrated to the center of the keratotic plug”. The collapsibility by the detergency against keratotic plug was relatively evaluated by criteria with 11 ratings starting from the rating 1 “almost no change is observed in the external appearance of the keratotic plug” to the rating 11 “peeling or separation is observed in the area from the surface layer to the central portion of the keratotic plug (the initial appearance of the keratotic plug is not retained)”.

[2] = Keratotic plug detergency (during cleansing): collapse state of keratotic plugs one minute after contact with the sample; set-up: species or system human; conditions: contact with the sample for 1 minute; samples of Table 1
Protocol: Keratotic plugs in the nasal region were removed with “Biore Nose Pack (manufactured by Kao Corporation)”, the resulting keratotic plugs on the pack were gently taken out with tweezers.
The resulting keratotic plugs were placed on a slide glass and were covered with a cover glass, and 0.05 mL of a sample was dropwise added to an edge of the cover glass. Consequently, the sample entered into the gap between the slide glass and the cover glass by capillary phenomenon and was brought into contact with the keratotic plugs. The contact of the keratotic plugs and the sample was recorded with a digital microscope (VHX-5000, manufactured by Keyence Corporation, magnification: 150×), and the penetration of the sample into the keratotic plugs and the collapse state of the keratotic plugs were evaluated after one minute from the contact of the keratotic plugs with the sample. The results of each evaluation are shown in the columns “Keratotic plug detergency (penetration)” and “Keratotic plug detergency (during cleansing)” in Tables. The measurements were performed at 25° C.
The penetration was relatively evaluated by criteria with 11 ratings starting from the rating 1 “the sample hardly penetrated into the keratotic plug” to the rating 11 “the sample penetrated to the center of the keratotic plug”. The collapsibility by the detergency against keratotic plug was relatively evaluated by criteria with 11 ratings starting from the rating 1 “almost no change is observed in the external appearance of the keratotic plug” to the rating 11 “peeling or separation is observed in the area from the surface layer to the central portion of the keratotic plug (the initial appearance of the keratotic plug is not retained)”.

[3] = Keratotic plug detergency after washing with water: collapse state one minute after contact with water; set-up: species or system human; conditions: sample substituted with water; samples of Table 1
Excerpt: The penetration was relatively evaluated by criteria with 11 ratings starting from the rating 1 “the sample hardly penetrated into the keratotic plug” to the rating 11 “the sample penetrated to the center of the keratotic plug”. The collapsibility by the detergency against keratotic plug was relatively evaluated by criteria with 11 ratings starting from the rating 1 “almost no change is observed in the external appearance of the keratotic plug” to the rating 11 “peeling or separation is observed in the area from the surface layer to the central portion of the keratotic plug (the initial appearance of the keratotic plug is not retained)”. After one minute from the contact of the keratotic plugs with the sample, Kimwipes (registered trademark) was brought into contact with an edge of the cover glass to remove the sample under the cover glass. […] The results of the evaluation are shown in the column “Keratotic plug detergency (during washing with water)” in Table. The measurements were performed at 25° C.

[4] = cited from earlier work
[5] = test system: insoluble protein (seine protein); assay: Evaluation of effect of suppressing protein aggregation (precipitation of insoluble protein); conditions: sample of Table 1
Protocol: Thirty milliliters of a sample and 0.06 g of an insoluble protein (seine protein) were placed in a 35-mL standard glass bottle, and the concentration of the insoluble protein was adjusted to 0.2 mass % (test sample). Separately, a standard sample was prepared by using water instead of the sample and adjusting the concentration of the insoluble protein to 0.2 mass %. Subsequently, the standard glass bottles were sufficiently shaken and stirred up and down (shake width: 15 cm, 20 times at a rate of 5 times for 3 seconds) in a thermostatic chamber of 25° C. and were left to stand for 3 minutes. The precipitation state of the insoluble protein was then visually verified, and the ratio of the amount of the precipitated standard sample to the amount of the precipitated test sample (the height of the precipitate in each standard glass bottle was measured as the precipitation amount), (precipitation amount of standard sample)/(precipitation amount of test sample), was calculated. A higher ratio indicates a higher effect of suppressing protein aggregation.

O=P([O-])([O-])[O-].[Na+].[Na+].[Na+] [trisodium phosphate]
penetration of the sample into keratotic plugs (in words) [1]: the sample hardly penetrated into keratotic plugs
collapse of keratotic plugs in contact with the sample, assumption of cleansing (in words) [2]: the collapse of the keratotic plugs did not progress
collapse of keratotic plugs during washing with water (in words) [3]: the collapse of keratotic plugs did not progress

O=C([O-])O.[Na+] [sodium hydrogen carbonate]
penetration of the sample into keratotic plugs (in words) [1]: the sample hardly penetrated into keratotic plugs
collapse of keratotic plugs in contact with the sample, assumption of cleansing (in words) [2]: the collapse of the keratotic plugs did not progress
collapse of keratotic plugs during washing with water (in words) [3]: the collapse of keratotic plugs did not progress

O=P([O-])([O-])O.[Na+].[Na+] [disodium hydrogen phosphate]
penetration of the sample into keratotic plugs (in words) [1]: the sample hardly penetrated into keratotic plugs
collapse of keratotic plugs in contact with the sample, assumption of cleansing (in words) [2]: the collapse of the keratotic plugs did not progress
collapse of keratotic plugs during washing with water (in words) [3]: the collapse of keratotic plugs did not progress

CC(C)(N)CO [AMP, 2-amino-2-methyl-1-propanol]
penetration of the sample into keratotic plugs (in words) [1]: the sample penetrated into keratotic plugs
collapse of keratotic plugs during washing with water (in words) [3]: further accelerating the collapse of keratotic plugs
solubility in water (in words) [4]: readily dissolved in water

NC(CO)(CO)CO [Tris, 2-amino-2-hydroxymethyl-1,3-propanediol]
solubility in water (in words) [4]: readily dissolved in water

sodium polyoxyethylene (2) lauryl ether sulfate [POE (2) sodium lauryl sulfate]
penetration of the sample into keratotic plugs (in words) [1]: hardly penetrated into the keratotic plugs
collapse of keratotic plugs in contact with the sample, assumption of cleansing (in words) [2]: the collapse of the keratotic plugs did not progress
action on proteins (in words) [5]: the action on proteins was strong to dissolve the proteins
